{"source": "ChEMBL document CHEMBL1833788", "about": "“Selective water-soluble gelatinase inhibitor prodrugs” (J Med Chem, 2011)", "key": {"Mus musculus [1]": {"test_system": "Mus musculus", "experiment": "Prodrug conversion in C57B1/6 mouse assessed as N-(4-(4-(thiiran-2-ylmethylsulfonyl)phenoxy)phenyl)acetamide level in plasma at […], iv administered as single bolus dose after 22 mins by reversed-phase HPLC/UV analysis", "assay_type": "ADME, organism-based", "conditions": "in vivo; call rule not given here"}, "Mus musculus [2]": {"test_system": "Mus musculus", "experiment": "Prodrug conversion in C57B1/6 mouse plasma assessed as parent compound level at […], iv administered as single bolus dose after 2 to 3 mins by reversed-phase LC/MS analysis", "assay_type": "ADME, organism-based", "conditions": "in vivo, read-out: Drug metabolism"}, "Mus musculus [3]": {"test_system": "Mus musculus", "experiment": "Prodrug conversion in C57B1/6 mouse assessed as N-(4-(4-(thiiran-2-ylmethylsulfonyl)phenoxy)phenyl)acetamide level in plasma at […], iv administered as single bolus dose after 2 to 3 mins by reversed-phase LC/MS analysis", "conditions": "in vivo"}, "Mus musculus [4]": {"test_system": "Mus musculus", "experiment": "AUC (0 to last) in C57B1/6 mouse plasma assessed as parent compound level at […], iv administered as single bolus dose", "assay_type": "ADME, organism-based", "conditions": "in vivo"}, "Mus musculus [5]": {"test_system": "Mus musculus", "experiment": "Distribution half life in C57B1/6 mouse plasma assessed as N-(4-(4-(thiiran-2-ylmethylsulfonyl)phenoxy)phenyl)acetamide level at […], iv administered as single bolus dose", "assay_type": "ADME, organism-based", "conditions": "in vivo"}, "Mus musculus [6]": {"test_system": "Mus musculus", "experiment": "Prodrug conversion in C57B1/6 mouse plasma assessed as parent compound level at […], iv administered as single bolus dose after 4 to 5 mins by reversed-phase LC/MS analysis", "assay_type": "ADME, organism-based", "conditions": "in vivo, read-out: Drug metabolism"}, "Mus musculus [7]": {"test_system": "Mus musculus", "experiment": "Volume of distribution in C57B1/6 mouse plasma assessed as parent compound level at […], iv administered as single bolus dose", "assay_type": "ADME, organism-based", "conditions": "in vivo"}, "Mus musculus [8]": {"test_system": "Mus musculus", "experiment": "Prodrug conversion in C57B1/6 mouse assessed as 4-[4-((Thiiran-2-yl)methylsulphonyl)phenoxy]benzamine level in plasma at […], iv administered as single bolus dose after 22 mins by reversed-phase HPLC/UV analysis", "assay_type": "ADME, organism-based", "conditions": "in vivo"}, "Mus musculus [9]": {"test_system": "Mus musculus", "experiment": "Distribution half life in C57B1/6 mouse plasma assessed as parent compound level at […], iv administered as single bolus dose", "assay_type": "ADME, organism-based", "conditions": "in vivo"}, "Mus musculus [10]": {"test_system": "Mus musculus", "experiment": "Prodrug conversion in C57B1/6 mouse plasma assessed as parent compound level at […], iv administered as single bolus dose after 120 to 123 mins by reversed-phase LC/MS analysis", "assay_type": "ADME, organism-based", "conditions": "in vivo, read-out: Drug metabolism"}, "Mus musculus [11]": {"test_system": "Mus musculus", "experiment": "Terminal half life in C57B1/6 mouse plasma assessed as N-(4-(4-(thiiran-2-ylmethylsulfonyl)phenoxy)phenyl)acetamide level at […], iv administered as single bolus dose", "assay_type": "ADME, organism-based", "conditions": "in vivo, BLD = below limit of detection"}, "Mus musculus [12]": {"test_system": "Mus musculus", "experiment": "Prodrug conversion in C57B1/6 mouse plasma assessed as parent compound level at […], iv administered as single bolus dose after 7 to 8 mins by reversed-phase LC/MS analysis", "assay_type": "ADME, organism-based", "conditions": "in vivo"}, "Mus musculus [13]": {"test_system": "Mus musculus", "experiment": "Prodrug conversion in C57B1/6 mouse assessed as N-(4-(4-(thiiran-2-ylmethylsulfonyl)phenoxy)phenyl)acetamide level in plasma at […], iv administered as single bolus dose after 62 to 66 mins by reversed-phase LC/MS analysis", "conditions": "in vivo"}, "Mus musculus [14]": {"test_system": "Mus musculus", "experiment": "Prodrug conversion in C57B1/6 mouse assessed as N-(4-(4-(thiiran-2-ylmethylsulfonyl)phenoxy)phenyl)acetamide level in plasma at […], iv administered as single bolus dose after 7 to 8 mins by reversed-phase LC/MS analysis", "conditions": "in vivo"}, "Mus musculus [15]": {"test_system": "Mus musculus", "experiment": "Prodrug conversion in C57B1/6 mouse assessed as 4-[4-((Thiiran-2-yl)methylsulphonyl)phenoxy]benzamine level in plasma at […], iv administered as single bolus dose after 2 to 3 mins by reversed-phase HPLC/UV analysis", "assay_type": "ADME, organism-based", "conditions": "in vivo"}, "Mus musculus [16]": {"test_system": "Mus musculus", "experiment": "Distribution half life in C57B1/6 mouse plasma assessed as 4-[4-((Thiiran-2-yl)methylsulphonyl)phenoxy]benzamine level at […], iv administered as single dose", "assay_type": "ADME, organism-based", "conditions": "in vivo"}, "Mus musculus [17]": {"test_system": "Mus musculus", "experiment": "Prodrug conversion in C57B1/6 mouse plasma assessed as parent compound level at […], iv administered as single bolus dose after 62 to 66 mins by reversed-phase LC/MS analysis", "assay_type": "ADME, organism-based", "conditions": "in vivo, read-out: Drug metabolism"}, "Mus musculus [18]": {"test_system": "Mus musculus", "experiment": "Terminal half life in C57B1/6 mouse plasma assessed as parent compound level at […], iv administered as single bolus dose", "assay_type": "ADME, organism-based", "conditions": "in vivo"}, "Mus musculus [19]": {"test_system": "Mus musculus", "experiment": "Prodrug conversion in C57B1/6 mouse plasma assessed as parent compound level at […], iv administered as single bolus dose after 22 mins by reversed-phase LC/MS analysis", "assay_type": "ADME, organism-based", "conditions": "in vivo, read-out: Drug metabolism"}, "Mus musculus [20]": {"test_system": "Mus musculus", "experiment": "Prodrug conversion in C57B1/6 mouse assessed as 4-[4-((Thiiran-2-yl)methylsulphonyl)phenoxy]benzamine level in plasma at […], iv administered as single bolus dose after 62 to 66 mins by reversed-phase HPLC/UV analysis", "assay_type": "ADME, organism-based", "conditions": "in vivo, read-out: Drug metabolism"}, "Mus musculus [21]": {"test_system": "Mus musculus", "experiment": "Prodrug conversion in C57B1/6 mouse assessed as 4-[4-((Thiiran-2-yl)methylsulphonyl)phenoxy]benzamine level in plasma at […], iv administered as single bolus dose after 120 to 123 mins by reversed-phase HPLC/UV analysis", "assay_type": "ADME, organism-based", "conditions": "in vivo"}, "Mus musculus [22]": {"test_system": "Mus musculus", "experiment": "Prodrug conversion in C57B1/6 mouse assessed as N-(4-(4-(thiiran-2-ylmethylsulfonyl)phenoxy)phenyl)acetamide level in plasma at […], iv administered as single bolus dose after 42 mins by reversed-phase HPLC/UV analysis", "assay_type": "ADME, organism-based", "conditions": "in vivo, 0.7 h"}, "Mus musculus [23]": {"test_system": "Mus musculus", "experiment": "Clearance in C57B1/6 mouse plasma assessed as parent compound level at […], iv administered as single bolus dose", "assay_type": "ADME, organism-based", "conditions": "in vivo"}, "Mus musculus [24]": {"test_system": "Mus musculus", "experiment": "Prodrug conversion in C57B1/6 mouse assessed as N-(4-(4-(thiiran-2-ylmethylsulfonyl)phenoxy)phenyl)acetamide level in plasma at […], iv administered as single bolus dose after 4 to 5 mins by reversed-phase HPLC/UV analysis", "assay_type": "ADME, organism-based", "conditions": "in vivo, read-out: Drug metabolism"}, "Mus musculus [25]": {"test_system": "Mus musculus", "experiment": "Prodrug conversion in C57B1/6 mouse assessed as 4-[4-((Thiiran-2-yl)methylsulphonyl)phenoxy]benzamine level in plasma at […], iv administered as single bolus dose after 11 to 12 mins by reversed-phase HPLC/UV analysis", "assay_type": "ADME, organism-based", "conditions": "in vivo, read-out: Drug metabolism"}, "Mus musculus [26]": {"test_system": "Mus musculus", "experiment": "Prodrug conversion in C57B1/6 mouse assessed as 4-[4-((Thiiran-2-yl)methylsulphonyl)phenoxy]benzamine level in plasma at […], iv administered as single bolus dose after 240 mins by reversed-phase HPLC/UV analysis", "assay_type": "ADME, organism-based", "conditions": "in vivo, 4 h, read-out: Drug metabolism"}, "Mus musculus [27]": {"test_system": "Mus musculus", "experiment": "Terminal half life in C57B1/6 mouse plasma assessed as 4-[4-((Thiiran-2-yl)methylsulphonyl)phenoxy]benzamine level at […], iv administered as single dose", "assay_type": "ADME, organism-based", "conditions": "in vivo"}, "Mus musculus [28]": {"test_system": "Mus musculus", "experiment": "AUC (0 to last) in C57B1/6 mouse plasma assessed as 4-[4-((Thiiran-2-yl)methylsulphonyl)phenoxy]benzamine level at […], iv administered as single bolus dose", "assay_type": "ADME, organism-based", "conditions": "in vivo"}, "Mus musculus [29]": {"test_system": "Mus musculus", "experiment": "AUC (0 to last) in C57B1/6 mouse plasma assessed as N-(4-(4-(thiiran-2-ylmethylsulfonyl)phenoxy)phenyl)acetamide level at […], iv administered as single bolus dose", "assay_type": "ADME, organism-based", "conditions": "in vivo"}, "Mus musculus [30]": {"test_system": "Mus musculus", "experiment": "Prodrug conversion in C57B1/6 mouse assessed as N-(4-(4-((Thiiran-2-ylmethyl)sulfonyl)phenoxy)phenyl) hydroxylamine level in plasma at […], iv administered as single dose by reversed-phase LC/MS analysis", "assay_type": "ADME, organism-based", "conditions": "in vivo"}, "Mus musculus [31]": {"test_system": "Mus musculus", "experiment": "Prodrug conversion in C57B1/6 mouse plasma assessed as parent compound level at […], iv administered as single bolus dose after 42 mins by reversed-phase LC/MS analysis", "assay_type": "ADME, organism-based", "conditions": "in vivo, 0.7 h"}, "Mus musculus [32]": {"test_system": "Mus musculus", "experiment": "AUC (0 to infinity) in C57B1/6 mouse plasma assessed as parent compound level at […], iv administered as single bolus dose", "assay_type": "ADME, organism-based", "conditions": "in vivo"}}}
{"smiles": "Cl.N=C(N)NCCC[C@H](N)C(=O)Nc1ccc(Oc2ccc(S(=O)(=O)CC3CS3)cc2)cc1", "note": "(some centres not stated)", "values": [{"measurement": "Drug metabolism", "setting": "Mus musculus [1]", "result": 0.0627, "unit": "µM"}, {"measurement": "concentration", "setting": "Mus musculus [2]", "result": 35100, "unit": "nM"}, {"measurement": "Drug metabolism", "setting": "Mus musculus [3]", "result": 0.0354, "unit": "µM"}, {"measurement": "AUClast", "setting": "Mus musculus [4]", "result": 360, "unit": "µM·min"}, {"measurement": "alphat1/2", "setting": "Mus musculus [5]", "result": 12, "unit": "min"}, {"measurement": "concentration", "setting": "Mus musculus [6]", "result": 7320, "unit": "nM"}, {"measurement": "Vd", "setting": "Mus musculus [7]", "result": 0.0978, "unit": "L/kg"}, {"measurement": "Drug metabolism", "setting": "Mus musculus [8]", "result": 0.787, "unit": "µM"}, {"measurement": "alphat1/2", "setting": "Mus musculus [9]", "result": 0.88, "unit": "min"}, {"measurement": "concentration", "setting": "Mus musculus [10]", "result": 17.1, "unit": "nM"}, {"measurement": "beta t1/2", "setting": "Mus musculus [11]", "result": "BLD"}, {"measurement": "Drug metabolism", "setting": "Mus musculus [12]", "result": 1.28, "unit": "µM"}, {"measurement": "Drug metabolism", "setting": "Mus musculus [13]", "result": 0.0121, "unit": "µM"}, {"measurement": "Drug metabolism", "setting": "Mus musculus [14]", "result": 0.176, "unit": "µM"}, {"measurement": "Drug metabolism", "setting": "Mus musculus [15]", "result": 12.3, "unit": "µM"}, {"measurement": "alphat1/2", "setting": "Mus musculus [16]", "result": 2.9, "unit": "min"}, {"measurement": "concentration", "setting": "Mus musculus [17]", "result": 38.5, "unit": "nM"}, {"measurement": "beta t1/2", "setting": "Mus musculus [18]", "result": 4.33, "unit": "h"}, {"measurement": "concentration", "setting": "Mus musculus [19]", "result": 138, "unit": "nM"}, {"measurement": "concentration", "setting": "Mus musculus [20]", "result": 90.8, "unit": "nM"}, {"measurement": "Drug metabolism", "setting": "Mus musculus [21]", "result": 0.0248, "unit": "µM"}, {"measurement": "Drug metabolism", "setting": "Mus musculus [22]", "result": 0.0358, "unit": "µM"}, {"measurement": "CL", "setting": "Mus musculus [23]", "result": 58.2, "unit": "mL/min/kg"}, {"measurement": "concentration", "setting": "Mus musculus [24]", "result": 231, "unit": "nM"}, {"measurement": "concentration", "setting": "Mus musculus [25]", "result": 2450, "unit": "nM"}, {"measurement": "concentration", "setting": "Mus musculus [26]", "result": 14.5, "unit": "nM"}, {"measurement": "beta t1/2", "setting": "Mus musculus [27]", "result": 1.15, "unit": "h"}, {"measurement": "AUClast", "setting": "Mus musculus [28]", "result": 137, "unit": "µM·min"}, {"measurement": "AUClast", "setting": "Mus musculus [29]", "result": 4.22, "unit": "µM·min"}, {"measurement": "Drug metabolism", "setting": "Mus musculus [30]", "result": "Not Active"}, {"measurement": "Drug metabolism", "setting": "Mus musculus [31]", "result": 0.0872, "unit": "µM"}, {"measurement": "AUC", "setting": "Mus musculus [32]", "result": 363, "unit": "µM·min"}]}
